# Results: patent publication US6376682B1, “Compound with α-glucosidase inhibiting action and method for producing the same” (Takama System, Ltd., priority 2000, dated 2002)
# Tests used:
# [1] = tested on: blood sugar elevation caused by sucrose loading; test: Inhibiting effect on hyperglycemia in the case of sucrose loading; format: in vivo, male Wistar rats; details: rats; for Rate of inhibition of blood sugar elevation 30 minutes: po, 30 minutes after sucrose loading
# Description: The test was oraly administered as an aqueous solution to fasting male Wistar rats (body weight: 130 to 170 g.
# Next after 30 minutes, the sucrose was orally administered to the rats.
# Then, 30 minutes, after the administered of the sugar, 0.4 ml of blood was taken from the neck artery of each animal with the animal under restraint without anesthesia (during blood collection only). following colling with ice water, the blood serum was separated by centrifuging, and the glucose concentration (blood sugar level) was measured by the glucose oxidase method (Glucose CII Test Wako).
# The above-described test was performed for the novel compound SP (product of the present invention) and Acabose(clnventional roduct).
# [2] = target: T1, isomaltase originating in the small intestines of rats (Rattus norvegicus, UniProt P23739); test: Inhibiting effect on isomaltase, rat jejunum brush border membrane crude enzyme; format: biochemical; details: times stronger than Acarbose
# T1 construct: The brush border membrane obtained from the jejunum of male Wistar rats (body weight: 150 to 350 g) was used as a crude enzyme; from tissue; host or cells: jejunal brush border membrane of male Wistar rats
# T1 sequence (P23739 whole entry): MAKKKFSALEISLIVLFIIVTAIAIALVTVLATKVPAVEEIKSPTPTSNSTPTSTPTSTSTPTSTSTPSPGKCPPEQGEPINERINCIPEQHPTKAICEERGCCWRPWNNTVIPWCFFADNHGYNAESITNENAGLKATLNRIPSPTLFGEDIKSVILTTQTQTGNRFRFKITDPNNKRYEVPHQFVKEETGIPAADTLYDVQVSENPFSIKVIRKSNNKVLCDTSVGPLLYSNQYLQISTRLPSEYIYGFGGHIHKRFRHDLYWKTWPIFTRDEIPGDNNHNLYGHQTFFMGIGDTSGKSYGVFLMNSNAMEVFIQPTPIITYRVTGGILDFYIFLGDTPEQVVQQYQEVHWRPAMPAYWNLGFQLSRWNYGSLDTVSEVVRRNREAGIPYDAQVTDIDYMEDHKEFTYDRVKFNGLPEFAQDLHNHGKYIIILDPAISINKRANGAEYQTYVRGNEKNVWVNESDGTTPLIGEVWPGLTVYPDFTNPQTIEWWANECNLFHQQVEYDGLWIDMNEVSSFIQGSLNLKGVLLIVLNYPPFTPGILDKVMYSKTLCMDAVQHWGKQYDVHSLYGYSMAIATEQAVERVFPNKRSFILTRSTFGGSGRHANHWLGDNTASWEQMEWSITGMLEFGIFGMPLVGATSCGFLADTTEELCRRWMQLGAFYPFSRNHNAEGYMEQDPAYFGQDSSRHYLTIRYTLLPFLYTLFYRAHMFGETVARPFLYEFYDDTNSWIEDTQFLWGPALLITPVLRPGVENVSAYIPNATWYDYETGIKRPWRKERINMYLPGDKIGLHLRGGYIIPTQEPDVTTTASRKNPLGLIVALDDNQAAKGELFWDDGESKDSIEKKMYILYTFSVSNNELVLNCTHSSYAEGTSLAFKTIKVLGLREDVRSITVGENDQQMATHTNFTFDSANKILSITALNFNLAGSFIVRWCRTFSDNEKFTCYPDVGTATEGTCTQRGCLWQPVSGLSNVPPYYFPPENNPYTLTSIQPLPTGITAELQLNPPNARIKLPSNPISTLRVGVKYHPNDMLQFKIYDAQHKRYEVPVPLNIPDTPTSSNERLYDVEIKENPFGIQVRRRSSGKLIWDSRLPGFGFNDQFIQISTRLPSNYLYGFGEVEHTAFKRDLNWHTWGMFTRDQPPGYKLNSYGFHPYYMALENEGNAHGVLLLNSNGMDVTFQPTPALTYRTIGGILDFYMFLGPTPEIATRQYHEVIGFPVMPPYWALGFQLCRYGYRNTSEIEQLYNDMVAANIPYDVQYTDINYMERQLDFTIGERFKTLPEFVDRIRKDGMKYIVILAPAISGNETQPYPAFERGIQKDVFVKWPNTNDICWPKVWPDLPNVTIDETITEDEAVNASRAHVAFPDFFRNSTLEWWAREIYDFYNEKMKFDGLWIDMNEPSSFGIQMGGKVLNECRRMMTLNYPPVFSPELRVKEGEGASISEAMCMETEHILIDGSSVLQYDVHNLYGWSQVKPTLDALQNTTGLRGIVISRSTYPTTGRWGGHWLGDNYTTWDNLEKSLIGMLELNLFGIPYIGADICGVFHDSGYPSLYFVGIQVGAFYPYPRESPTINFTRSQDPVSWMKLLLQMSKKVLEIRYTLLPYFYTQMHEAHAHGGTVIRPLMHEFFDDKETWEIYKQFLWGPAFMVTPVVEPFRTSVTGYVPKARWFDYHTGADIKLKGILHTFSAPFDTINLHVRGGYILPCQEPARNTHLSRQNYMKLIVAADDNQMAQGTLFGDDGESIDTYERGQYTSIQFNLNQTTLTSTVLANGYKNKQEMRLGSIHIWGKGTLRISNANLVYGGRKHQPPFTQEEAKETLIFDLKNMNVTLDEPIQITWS
# Description: The brush border membrane obtained from the jejunum of male Wistar rats (body weight: 150 to 350 g) was used as a crude enzyme.
# The brush border membrane was suspended in a 0.01 M maleic acid buffer solution (pH=6.0), and this suspension was diluted to a concentration at which the substrate was hydrolyzed at the rate of approximately 25 to 50 n/mol/ml/minute.
# For maltase, sucrase and isomaltase, 100 μL of various concentrations of the test drug was added to 50 μL of respective 74 mM maltose, sucrose and isomaltose (used as substrates), and the resulting preparations were pre-heated for 2 to 3 minutes at 37° C.
# Next, 50 μL of the enzyme solution was added, and a reaction was performed for 30 minutes. The reaction was stopped by adding 800 μL of water, and placing the reaction mixture in a water bath at 92 to 97° C. for 2 minutes.
# The amount of glucose produced was measured by the glucose oxidase method (Glucose CII Test Wako).
# In the above, the substrates and test drug were both dissolved in a maleic acid buffer solution (pH=6.0) prior to use.
# [3] = tested on: β-glucosidase originating in almonds; test: Activity inhibiting effect on β-glucosidase; format: biochemical; details: substrate p-nitrophenol-β-D-glycopyronoside, pH 5.0
# Description: β-glucosidase originating in almonds (manufactured by Sigma Co.) was dissolved in a 0.1 M acetic acid buffer solution (pH=5.0), and this solution was diluted to a concentration at which the substrate was hydrolyzed at the rate of 5 n/mol/ml/minute.
# 100 μL of the test drug was added to 50 μL of 10 mM p-nitrophenol-β-D-glycopyronoside (manufactured by Sigma Co.) used as a substrate, and this mixture was preheated for 5 minutes at 37° C.
# Next, 50 μL of the enzyme solution was added, and a reaction was performed for 15 minutes. The reaction was stopped by adding 200 μL of a 0.2 M sodium carbonate solution.
# The amount of p-nitrophenol produced was determined from the absorbance at 400 nm.
# The substrate and test drug were both dissolved in a 0.1 M acetic acid buffer solution (pH=5.0) prior to use.
Inhibitory effect against isomaltose relative to Acarbose [2],Activity inhibiting effect on β-glucosidase [3],SMILES,Rate of inhibition of blood sugar elevation 30 minutes ([1]; 5 mg/kg),Rate of inhibition of blood sugar elevation 30 minutes ([1]; 10 mg/kg),Rate of inhibition of blood sugar elevation 30 minutes ([1]; 25 mg/kg),Effect in inhibiting the elevation of blood sugar levels compared with Acarbose ([1]; sucrose loading)
,,"C[C@H]1O[C@H](O[C@H]2[C@H](O)[C@@H](O)[C@@H](O[C@H]3[C@H](O)[C@@H](O)C(O)O[C@@H]3CO)O[C@@H]2CO)[C@H](O)[C@@H](O)[C@@H]1N[C@H]1C=C(CO)[C@@H](O)[C@H](O)[C@H]1O (stereo partly drawn) [Acarbose, reference compound]",33.4 ± 6.2,48.5 ± 6.9,73.8 ± 5.2,
more than 200 times,no activity inhibiting effect,O=S(=O)([O-])OC(CO)C(O)C[S+]1CC(O)C(O)C1CO (stereo not drawn) [SP],40.5 ± 2.3,62.1 ± 3.8,89.1 ± 3.5,stronger effect in inhibiting the elevation of blood sugar levels than Acarbose
